Data: patent publication EP0238178B1, “Novel derivatives of erythromycylamine” (ELI LILLY AND COMPANY, priority 1986, dated 1987)
Converted amounts (≈) assume the structure as drawn. Like-named read-outs stand apart in the source and are kept apart here.

Tests used:
[1] = tested on: Streptococcus pneumoniae Park I; experiment: MIC, standard agar-dilution assay; assay type: cell-based
[2] = tested on: Staphylococcus aureus X1.1; experiment: MIC, standard agar-dilution assay; assay type: cell-based
[3] = tested on: Haemophilus influenzae C.L.; experiment: MIC, standard agar-dilution assay; assay type: cell-based; details: Ampicillin-sensitive strain
[4] = tested on: Staphylococcus aureus S13E; experiment: MIC, standard agar-dilution assay; assay type: cell-based
[5] = tested on: Streptococcus sp. group D X66; experiment: MIC, standard agar-dilution assay; assay type: cell-based; details: Streptococcus sp. group D X66
[6] = tested on: Streptococcus pyogenes C203; experiment: MIC, standard agar-dilution assay; assay type: cell-based
Staphylococcus aureus = experiment: Experimental bacterial infection in mice, ED50; assay type: in vivo; details: two doses, dose protecting 50% of animals; for ED50: Staphylococcus aureus
Experimental: (§1) The new derivatives of this invention have also shown in vivo antimicrobial activity against experimental bacterial infections. When two doses of test compound were administered to mice in experimental infections, the activity observed was measured as an EDso value [effective dose in mg/kg to protect 50% of the test animals: see Warren Wick, et al., J. Bacteriol. 81, 233-235 (1961)].

Streptococcus pneumoniae = experiment: Experimental bacterial infection in mice, ED50; assay type: in vivo; details: two doses, dose protecting 50% of animals; for ED50: Streptococcus pneumoniae
Experimental: as §1

Streptococcus pyogenes = experiment: Experimental bacterial infection in mice, ED50; assay type: in vivo; details: two doses, dose protecting 50% of animals; for ED50: Streptococcus pyogenes
Experimental: as §1

[7] = tested on: Klebsiella pneumoniae X68; experiment: MIC, standard agar-dilution assay; assay type: cell-based; details: read-out: MIC
Escherichia coli EC14 = experiment: MIC, standard agar-dilution assay; assay type: cell-based
[8] = tested on: Streptococcus sp. group D 2041; experiment: MIC, standard agar-dilution assay; assay type: cell-based
[9] = tested on: Haemophilus influenzae 76; experiment: MIC, standard agar-dilution assay; assay type: cell-based; details: Haemophilus influenzae 76, Ampicillin-resistant strain
[10] = tested on: Staphylococcus epidermidis 222; experiment: MIC, standard agar-dilution assay; assay type: cell-based
[11] = sc, subcutaneous, read-out: Subcutaneous ED50

Compound | MIC ([1]; read-out: MIC) | MIC ([2]; read-out: MIC) | MIC ([3]; read-out: MIC) | MIC [4] | MIC ([5]; read-out: MIC) | MIC ([6]; read-out: MIC) | ED50 (Staphylococcus aureus; po, read-out: Oral ED50) | ED50 (Streptococcus pneumoniae; po, read-out: Oral ED50) | ED50 (Streptococcus pyogenes; po, read-out: Oral ED50) | MIC (Escherichia coli EC14; read-out: MIC) | MIC ([8]; read-out: MIC) | MIC ([9]; read-out: MIC) | MIC ([10]; read-out: MIC) | further results
CCN[C@@H]1[C@H](C)[C@@H](O)[C@](C)(O)[C@@H](CC)OC(=O)[C@H](C)[C@@H](O[C@H]2C[C@@](C)(OC)[C@@H](O)[C@H](C)O2)[C@H](C)[C@@H](O[C@@H]2O[C@H](C)C[C@H](N(C)C)[C@H]2O)[C@](C)(O)C[C@H]1C [Compound 2, (9S)-9-Deoxo-9-(ethylamino)erythromycin] | 0.03 µg/mL (≈ 0.0393 µM) | 1 µg/mL (≈ 1.31 µM) | 1 µg/mL (≈ 1.31 µM) | 2 µg/mL (≈ 2.62 µM) | 0.25 µg/mL (≈ 0.328 µM) | 0.125 µg/mL (≈ 0.164 µM) | 23.4 mg/kg | 13.4 mg/kg | 12.5 mg/kg | 32 µg/mL (≈ 41.9 µM) | 4 µg/mL (≈ 5.24 µM) | 4 µg/mL (≈ 5.24 µM) | 1 µg/mL (≈ 1.31 µM) | MIC [7]: 64 µg/mL (≈ 83.9 µM)
CCCCCCN[C@@H]1[C@H](C)[C@@H](O)[C@](C)(O)[C@@H](CC)OC(=O)[C@H](C)[C@@H](O[C@H]2C[C@@](C)(OC)[C@@H](O)[C@H](C)O2)[C@H](C)[C@@H](O[C@@H]2O[C@H](C)C[C@H](N(C)C)[C@H]2O)[C@](C)(O)C[C@H]1C [Compound 6, 9-Deoxo-9-(n-hexylamino)erythromycin] | < 0.008 µg/mL | 1 µg/mL (≈ 1.22 µM) | 4 µg/mL (≈ 4.88 µM) | 1 µg/mL (≈ 1.22 µM) | 0.125 µg/mL (≈ 0.153 µM) | 0.125 µg/mL (≈ 0.153 µM) | 38.6 mg/kg | 14.3 mg/kg | 17.7 mg/kg | 64 µg/mL (≈ 78.1 µM) | 4 µg/mL (≈ 4.88 µM) | 4 µg/mL (≈ 4.88 µM) | 0.25 µg/mL (≈ 0.305 µM) | –
CCCCCCCN[C@@H]1[C@H](C)[C@@H](O)[C@](C)(O)[C@@H](CC)OC(=O)[C@H](C)[C@@H](O[C@H]2C[C@@](C)(OC)[C@@H](O)[C@H](C)O2)[C@H](C)[C@@H](O[C@@H]2O[C@H](C)C[C@H](N(C)C)[C@H]2O)[C@](C)(O)C[C@H]1C [Compound 7, 9-Deoxo-9-(-n-heptylamino)erythromycin] | 0.015 µg/mL (≈ 0.018 µM) | 0.25 µg/mL (≈ 0.3 µM) | 1 µg/mL (≈ 1.2 µM) | – | 0.06 µg/mL (≈ 0.072 µM) | 0.015 µg/mL (≈ 0.018 µM) | > 50 mg/kg | 33.2 mg/kg | 30.6 mg/kg | 64 µg/mL (≈ 76.8 µM) | 2 µg/mL (≈ 2.4 µM) | 2 µg/mL (≈ 2.4 µM) | 0.25 µg/mL (≈ 0.3 µM) | –
CC[C@H]1OC(=O)[C@H](C)[C@@H](O[C@H]2C[C@@](C)(OC)[C@@H](O)[C@H](C)O2)[C@H](C)[C@@H](O[C@@H]2O[C@H](C)C[C@H](N(C)C)[C@H]2O)[C@](C)(O)C[C@@H](C)[C@H](NCC2CC=CCC2)[C@H](C)[C@@H](O)[C@]1(C)O (some centres unmarked) [Compound 15, 9-Deoxo-9-[(1-cyclohex-4-enylmethyl)amino]erythromycin] | < 0.008 µg/mL | 1 µg/mL (≈ 1.21 µM) | 4 µg/mL (≈ 4.82 µM) | 1 µg/mL (≈ 1.21 µM) | 0.25 µg/mL (≈ 0.302 µM) | 0.06 µg/mL (≈ 0.0724 µM) | 20 mg/kg | 8.7 mg/kg | 14.9 mg/kg | 64 µg/mL (≈ 77.2 µM) | 8 µg/mL (≈ 9.65 µM) | 2 µg/mL (≈ 2.41 µM) | 0.25 µg/mL (≈ 0.302 µM) | –
CC[C@H]1OC(=O)[C@H](C)[C@@H](O[C@H]2C[C@@](C)(OC)[C@@H](O)[C@H](C)O2)[C@H](C)[C@@H](O[C@@H]2O[C@H](C)C[C@H](N(C)C)[C@H]2O)[C@](C)(O)C[C@@H](C)[C@H](NCCCc2ccccc2)[C@H](C)[C@@H](O)[C@]1(C)O [Compound 17, (9S)-9-Deoxo-9-[(3-phenypropyl)amino]erythromycin] | 0.015 µg/mL (≈ 0.0176 µM) | 1 µg/mL (≈ 1.17 µM) | 2 µg/mL (≈ 2.34 µM) | 0.5 µg/mL (≈ 0.586 µM) | 0.06 µg/mL (≈ 0.0703 µM) | 0.015 µg/mL (≈ 0.0176 µM) | 36.9 mg/kg | 17.2 mg/kg | 14.1 mg/kg | 128 µg/mL (≈ 150 µM) | 2 µg/mL (≈ 2.34 µM) | 2 µg/mL (≈ 2.34 µM) | 0.5 µg/mL (≈ 0.586 µM) | –
CC[C@H]1OC(=O)[C@H](C)[C@@H](O[C@H]2C[C@@](C)(OC)[C@@H](O)[C@H](C)O2)[C@H](C)[C@@H](O[C@@H]2O[C@H](C)C[C@H](N(C)C)[C@H]2O)[C@](C)(O)C[C@@H](C)[C@H](NCCCCCO)[C@H](C)[C@@H](O)[C@]1(C)O [Compound 21, 9-Deoxo-9-[(5-hydroxypentyl)amino]erythromycin] | < 0.008 µg/mL | 0.5 µg/mL (≈ 0.609 µM) | 2 µg/mL (≈ 2.44 µM) | 0.25 µg/mL (≈ 0.304 µM) | 0.25 µg/mL (≈ 0.304 µM) | < 0.008 µg/mL | > 50 mg/kg | > 50 mg/kg | 42.6 mg/kg | 32 µg/mL (≈ 39 µM) | 4 µg/mL (≈ 4.87 µM) | – | 0.5 µg/mL (≈ 0.609 µM) | MIC [7]: 128 µg/mL (≈ 156 µM)
CC[C@H]1OC(=O)[C@H](C)[C@@H](O[C@H]2C[C@@](C)(OC)[C@@H](O)[C@H](C)O2)[C@H](C)[C@@H](O[C@@H]2O[C@H](C)C[C@H](N(C)C)[C@H]2O)[C@](C)(O)C[C@@H](C)[C@H](NCCCOC)[C@H](C)[C@@H](O)[C@]1(C)O [Compound 23, (9S)-9-Deoxo-9-[(3-methoxypropyl)amino]erythromycin] | 0.03 µg/mL (≈ 0.0372 µM) | 2 µg/mL (≈ 2.48 µM) | 4 µg/mL (≈ 4.96 µM) | 2 µg/mL (≈ 2.48 µM) | 0.25 µg/mL (≈ 0.31 µM) | 0.125 µg/mL (≈ 0.155 µM) | 16.4 mg/kg | 15.9 mg/kg | 13.5 mg/kg | 64 µg/mL (≈ 79.3 µM) | 8 µg/mL (≈ 9.91 µM) | 4 µg/mL (≈ 4.96 µM) | 0.5 µg/mL (≈ 0.62 µM) | ED50 (Staphylococcus aureus; [11]): 3.73 mg/kg; ED50 (Streptococcus pneumoniae; [11]): 8.3 mg/kg; ED50 (Streptococcus pyogenes; [11]): 2.1 mg/kg
CC[C@H]1OC(=O)[C@H](C)[C@@H](O[C@H]2C[C@@](C)(OC)[C@@H](O)[C@H](C)O2)[C@H](C)[C@@H](O[C@@H]2O[C@H](C)C[C@H](N(C)C)[C@H]2O)[C@](C)(O)C[C@@H](C)[C@H](NCCCSC)[C@H](C)[C@@H](O)[C@]1(C)O [Compound 26, 9-Deoxo-9-[[3-(methylthio)propyl]amino]erythromycin] | 0.015 µg/mL (≈ 0.0182 µM) | 0.5 µg/mL (≈ 0.607 µM) | 4 µg/mL (≈ 4.86 µM) | 0.25 µg/mL (≈ 0.304 µM) | 0.25 µg/mL (≈ 0.304 µM) | 0.015 µg/mL (≈ 0.0182 µM) | – | 9.2 mg/kg | 7.9 mg/kg | 128 µg/mL (≈ 156 µM) | 2 µg/mL (≈ 2.43 µM) | 4 µg/mL (≈ 4.86 µM) | 0.5 µg/mL (≈ 0.607 µM) | –
Endo- and Exo-9-Deoxo-9-[(bicyclo[2.2.1]hept-2-en-5-yl-methyl)amino]erythromycin [Compound 19] | – | – | – | 2 µg/mL | – | – | – | – | – | – | – | – | – | MIC [1]: 0.015 µg/mL; MIC [2]: 2 µg/mL; MIC [3]: 8 µg/mL; MIC [5]: 1 µg/mL; MIC [6]: 0.25 µg/mL; Oral ED50 (Staphylococcus aureus; oral): >50 mg/kg; Oral ED50 (Streptococcus pneumoniae; oral): 25.0 mg/kg; Oral ED50 (Streptococcus pyogenes; oral): 16.6 mg/kg; MIC (Escherichia coli EC14): 64 µg/mL; MIC [8]: 8 µg/mL; MIC [9]: 8 µg/mL; MIC [10]: 1 µg/mL
